Data on five compounds can be found in patent publication US20240246905A1 (University of Leicester, priority 2021, published 2024).

Converted amounts (≈) assume the structure as drawn. Read-outs that look alike come from different tables or passages of the source.

The test system of experiment [1] is MRSA 252, MSSA 476, S. aureus 15981, P. aeruginosa PA01 and E. coli DH5α. The experiment is described as follows: Disc diffusion primary screening, five strains (statements in words). In kind it is cell-based. The settings on record: 500 μg/mL. As to the method: As such, the minimum inhibition concentration (MICs) of biologically active compounds were further assessed using the broth dilution method against the S. aureus strains; MRSA 252 and MSSA 476 (Table 1). The results of both assays enabled key structural elements and functional groups required for the compounds to retain their antibiotic activity to be identified.
The antibiotic activity was determined using a Kirby-Bauer method according to Clinical Standard Laboratory Institute (CSLI) Guidelines (2017). Briefly, 180 μL of a 1 in 200 dilution (in LB or TSB) of overnight cultures of selected Gram negative and Gram positive bacteria were applied to an agar plate containing the solid growth medium, Mueller-Hinton agar (MHA). Sterile discs, inoculated with 50 μL of antibiotic, were first added to the agar plate before the plates were incubated for 24 hours at 37° C. Following incubation, the zone of inhibition (if it existed) was recorded.

The next experiment concerns C. tropicalis ATCC 450. The experiment in a line: Anti-fungal MIC (CO-ADD). In kind it is cell-based. As to the method:
(§1) Fungal strains were cultured for 3 days on Yeast Extract-Peptone Dextrose (YPD) agar at 30° C. A yeast suspension of 1×10^6 to 5×10^6 CFU/mL (as determined by OD530) was prepared from five colonies. […] All plates were covered and incubated at 35° C. for 36 hours without shaking. […] The absorbance was measured using a Biotek Multiflo Synergy HTX plate reader. In both cases, the percentage of growth inhibition was calculated for each well, using the negative control (media only) and positive control (fungi without inhibitors) on the same plate. […] Due to a higher variance in growth and inhibition, a lower threshold was applied to the data for C. neoformans. In addition, the maximal percentage of growth inhibition is reported as DMax, indicating any compounds with marginal activity.

The subject of the next experiment is C. tropicalis ATCC 750. The experiment in a line: Anti-fungal MIC (CO-ADD). In kind it is cell-based. As to the method:
as §1

The subject of experiment [2] is C. deuterogattii ATCC 32609. The experiment in a line: Anti-fungal MIC (CO-ADD). Type of experiment: cell-based. As to the method:
as §1

Experiment [3] deals with C. neoformans H99; ATCC 208821. The experiment is described as follows: Anti-fungal MIC (CO-ADD). In kind it is cell-based. As to the method: as §1
A further experiment concerns C. albicans ATCC 90028. The experiment in a line: Anti-fungal MIC (CO-ADD). In kind it is cell-based. As to the method:
as §1

For a further experiment, the system named is C. glabrata ATCC 90030. The experiment is described as follows: Anti-fungal MIC (CO-ADD). Type of experiment: cell-based. Here is the method: as §1
Experiment [4] relates to Pseudomonas aeruginosa PA01. The experiment is described as follows: Disc diffusion (Kirby-Bauer), zone of inhibition. In kind it is cell-based. The settings on record: 500 μg/mL, '/' = no zone. The essentials:
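Kirby-Bauer per CLSI 2017: 1 in 200 dilutions of overnight cultures (LB for Gram-negatives, TSB for Gram-positives) spread on Mueller-Hinton agar. Discs loaded with 50 μL antibiotic were added and plates incubated 24 h at 37 °C. Zone of inhibition recorded.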

The test system of experiment [5] is MRSA 252. The experiment is described as follows: MIC before and after cysteine addition. Type of experiment: cell-based, S. aureus. The settings on record: up to 24 hours. The text has this: It is well known that compounds bearing an isocyanide group are usually highly reactive, capable of reacting with electrophiles, nucleophiles and radicals.^(30) As a result, it was important to identify any stability issues which might be encountered by the lead compounds, both in storage and in the presence of glutathione and cysteine. […] Another common feature of the lead compounds is the vinyl fragment. It was hypothesized that the presence of glutathione and cysteine found in eukaryotic cells could potentially interact with the electrophilic alkene group in the compounds, thus shutting down their antibiotic activity. To probe this potentially detrimental in vivo process, compound 39 was subjected to glutathione for up to 24 hours whilst compound 41 was added to cysteine for the same length of time.

In experiment [6] the test system is MRSA 252. The experiment in a line: LIVE/DEAD assay (SYTO 9 / propidium iodide). Type of experiment: cell-based, S. aureus. The settings on record: 4×MIC. As to the method: To attempt to further confirm whether the membrane was indeed targeted by compound 41, a LIVE/DEAD assay was performed, in which MRSA 252 was inoculated with two dyes: SYTO 9 and propidium iodide (PI). Cells with compromised membranes will stain fluorescent red whilst those cells with intact membranes will stain fluorescent green. […] Contrary to this, cells with no antibiotic present stained fluorescent green (FIG. 7).
The LIVE/DEAD BacLight™ bacterial viability kit was purchased from Thermo Fischer Scientific and the assay was performed per manufactures instructions. The kit provides two nucleic acid stains; SYTO-9 and propidium iodide (PI), which allows live bacteria with intact membranes to be distinguished from bacteria with compromised membranes. Single colonies of MRSA 252 were added to individual wells containing Melinex® films and 3 mL TSB and incubated at 37° C. for 18 hours with minimal agitation (70 rpm). The growth media was then exposed to the antibiotics at various concentrations and incubated for 10 hours. The medium was then discarded in each well, washed with PBS before 200 μL of a solution containing both nucleic acid stains was added (50 μL of each component in 10 mL PBS) and left to incubate in the dark for 15 minutes at room temperature. […]

A further experiment concerns S. aureus SH1000 cells. The experiment is described as follows: Potassium leakage detection. In kind it is cell-based. The following applies: 60 minutes, MRSA cells. Here is the method:
The potassium leakage of S. aureus SH1000 cells exposed to compounds was conducted as per previously published methods. Briefly, compounds were incubated with mid-exponential-phase S. aureus SH1000 cells in HEPES buffer (˜10^8 CFU/ml) for 60 minutes. Cells were then removed by centrifugation, and the supernatant was assayed for K^+ efflux by using a Perkin-Elmer 11001B atomic absorption instrument in flame emission mode (wavelength, 766.5 nm; slit, 0.7 nm high; air-acetylene flame). Prior to measurements, the instrument was calibrated using analytical grade potassium standards.

A further experiment deals with E. coli strain DH5a. The experiment in a line: MIC with and without outer membrane permeabilisation. Type of experiment: cell-based. The following applies: Escherichia coli. Here is the method:
Antibiotic MIC's were determined by a broth micro-dilution method according to Clinical Standard Laboratory Institute (CSLI) Guidelines (2017). Briefly, 96-well microplates, each containing 195 μL of the 1:2 dilution antibiotic in TSB, were inoculated with 5 μL of overnight cultured bacteria, diluted to give a starting bacterial concentration of 5×10^5 CFU/mL. The optical density of each well inoculated was recorded every 12 minutes over an 18 hour period at 37° C. The data from this was plotted in OriginPro8 (OriginLab) and sigmoidal curves fitted using the dose response function. Fitted values for each curve were used to calculate the MIC.

Where [7] appears, read: Candida tropicalis, ATCC450, read-out: MIC.
[8] abbreviates: Candida tropicalis, ATCC750, read-out: MIC.
Setting [9] is: Cryptococcus neoformans, ATCC208821, read-out: MIC.
Where [10] appears, read: Candida albicans, ATCC90028, read-out: MIC.
[11] abbreviates: Nakaseomyces glabratus, ATCC90030, read-out: MIC.

For `[C-]#[N+]/C=C/c1ccc(O)cc1/C=C/c1ccccc1` [Compound 36, 4-((E Z)-2-Isocyanovinyl)-3-((E)-styryl)phenol], the “antibiotic activity in disc diffusion assays (in words)” value in [1] is reported as “retained antibiotic activity”. Further, the MIC with C. tropicalis ATCC 450 (setting [7]) is 2 µg/mL; in the experiment with C. tropicalis ATCC 750 (setting [8]) it was 32 µg/mL; in experiment [2] (read-out: MIC) it was 2 µg/mL; in [3] (setting [9]) it was 4 to 8 µg/mL; in the experiment with C. albicans ATCC 90028 (setting [10]), 16 µg/mL; with C. glabrata ATCC 90030 (setting [11]), 32 µg/mL.
With `[C-]#[N+]C=Cc1cc(Br)ccc1O` [Compound 13], the MIC was 4 µg/mL in the experiment on C. tropicalis ATCC 450 (setting [7]); 16 µg/mL in the experiment on C. tropicalis ATCC 750 (setting [8]); 4 µg/mL in experiment [2] (read-out: MIC); 4 to 8 µg/mL in experiment [3] (setting [9]); 4 to 8 µg/mL in the experiment with C. albicans ATCC 90028 (setting [10]); above 32 µg/mL in the experiment on C. glabrata ATCC 90030 (setting [11]).
`[C-]#[N+]/C=C/c1ccc(NC(C)=O)cc1/C=C/c1ccccc1` [Compound 41, N-(4-((E)-2-Isocyanovinyl)-3-((E)-styryl)phenyl)acetamide] yielded a zone of inhibition at 500 µg/mL in [4] of 16 mm. The “MIC in the presence of cysteine” value in the experiment on MRSA 252 [5] is reported as “remained unaffected”. The “membrane integrity (LIVE/DEAD stain)” value in the experiment with MRSA 252 [6] is reported as “significant membrane damage”. Besides, the “dissipation of cellular K+ ions” value in the experiment on S. aureus SH1000 cells was 50%. In addition, the MIC against E. coli strain DH5a (not permeabilised) was 280 µg/mL (≈ 971 µM); in the experiment on E. coli strain DH5a (outer membrane permeabilised with polymixin B nanopeptides), 16 µg/mL (≈ 55.5 µM); with C. tropicalis ATCC 450 (setting [7]) it was 1 to 2 µg/mL; in the experiment on C. tropicalis ATCC 750 (setting [8]) it was 32 µg/mL; in experiment [2] (read-out: MIC) it was 1 to 2 µg/mL; in experiment [3] (setting [9]), 2 µg/mL. Further, the values for the MIC with C. albicans ATCC 90028 (setting [10]) and in the experiment with C. glabrata ATCC 90030 (setting [11]) were 2 to 4 µg/mL and 32 µg/mL, respectively. In addition, the “antibiotic activity in disc diffusion assays (in words)” value in experiment [1] is “excellent activity against all three S. aureus strains, as well as P. aeruginosa PAO1”.
With “(2-Isocyanovinyl)-4-acetaamido benzene [Compound 22]”, the MIC in the experiment on C. tropicalis ATCC 450 is above 32 µg/mL; in the experiment with C. tropicalis ATCC 750, above 32 µg/mL; in experiment [2] it was above 32 µg/mL; in experiment [3] it was above 32 µg/mL; in the experiment with C. albicans ATCC 90028, 16 µg/mL; in the experiment with C. glabrata ATCC 90030, above 32 µg/mL.
Consider `[C-]#[N+]C=Cc1ccc(O)c(Br)c1` [Compound 14], for which the MIC is above 32 µg/mL with C. tropicalis ATCC 450 (setting [7]); above 32 µg/mL in the experiment on C. tropicalis ATCC 750 (setting [8]); 32 µg/mL in experiment [2] (read-out: MIC); above 32 µg/mL in experiment [3] (setting [9]); 32 µg/mL in the experiment on C. albicans ATCC 90028 (setting [10]); above 32 µg/mL with C. glabrata ATCC 90030 (setting [11]).
